Where two headings read alike, the source gives them in different places.
Experiments:
CYP1A2 = CYP1A2 (Homo sapiens (Human), UniProt P05177); assay: CYP enzyme inhibition in pooled human liver microsomes (phenacetin); type: in vitro ADME
Procedure: (§1) Typical substrate metabolic responses of five major human CYP subtypes (CYP1A2, CYP2C9, CYP2C19, CYP2D6, CYP3A4) were evaluated using 150-donor pooled human liver microsomes (purchased from Corning, Cat. No.: 452117). The influence of different concentrations of each compound to be tested on metabolic responses of phenacetin (CYP1A2), diclofenac sodium (CYP2C9), S-mephenytoin (CYP2C19), bufuralol hydrochloride (CYP2D6), and midazolam (CYP3A4) was determined by liquid chromatography-mass spectrometry (LC/MS/MS). […] Then 200 μL of acetonitrile solution containing 3% formic acid and 40 nM internal standard verapamil was added and centrifuged at 4000 rpm for 50 min. The mixture was cooled on ice for 20 min and centrifuged at 4000 rpm for 20 min to precipitate the protein. Then 200 μL of supernatant was analyzed by LC-MS/MS. The peak area was calculated from the chromatogram. The residual activity ratio (%) was calculated according to the following equation: Peak area ratio=metabolite peak area/internal standard peak area Residual activity ratio (%)=peak area ratio of compounds-to-be-tested group/peak area ratio of blank group The half inhibitory concentration (IC50) for CYP was calculated by Excel XLfit 5.3.1.3.

CYP2C9 = CYP2C9 (Homo sapiens (Human), UniProt P11712); assay: CYP enzyme inhibition in pooled human liver microsomes (diclofenac sodium); type: in vitro ADME
Sequence of CYP2C9 (P11712 whole entry): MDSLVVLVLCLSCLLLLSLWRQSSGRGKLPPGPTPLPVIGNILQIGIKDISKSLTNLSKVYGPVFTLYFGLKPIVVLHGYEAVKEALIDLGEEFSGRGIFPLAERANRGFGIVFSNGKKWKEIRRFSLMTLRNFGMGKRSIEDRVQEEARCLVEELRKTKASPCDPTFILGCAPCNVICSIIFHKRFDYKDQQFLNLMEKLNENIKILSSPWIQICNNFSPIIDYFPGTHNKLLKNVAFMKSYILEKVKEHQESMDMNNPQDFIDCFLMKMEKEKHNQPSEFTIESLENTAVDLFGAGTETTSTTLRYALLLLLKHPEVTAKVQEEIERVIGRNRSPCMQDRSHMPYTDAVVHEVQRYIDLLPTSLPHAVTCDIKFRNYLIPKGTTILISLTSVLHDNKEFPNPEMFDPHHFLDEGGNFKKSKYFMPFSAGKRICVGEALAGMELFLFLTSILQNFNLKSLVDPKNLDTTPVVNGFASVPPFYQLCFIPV
Procedure: as §1

[1] = Solubility (PBS pH 7.4) of compound solids; type: physicochemical; conditions: aqueous buffer, thermodynamic from solid, PBS pH 7.4, 25° C.
Procedure: The solubility (PBS pH 7.4) of compound solids to be tested was determined by LC/MS/MS. Approximately 1 mg of each compound powder was accurately weighed into a glass vial, and DMSO was added in a volume of 1 mL per milligram of compound. […] In 490 μL of water and acetonitrile (1:1) containing an internal standard, 5 μL of 1 mg/mL solution and 5 μL of PBS pH 7.4 solution were mixed to prepare 10 μg/mL standard concentration solution of the sample to be tested. Then 10 μL of 10 μg/mL solution was diluted in 90 μL of water and acetonitrile (1:1) containing an internal standard to prepare 1 μg/mL standard concentration solution of the sample to be tested. The dilution factor of the standard solution can be adjusted according to the strength of response signals in LC/MS. Approximately 1 mg of each compound powder was accurately weighed into a glass vial, and PBS pH 7.4 solution was added in a volume of 1 mL per milligram of compound. A stir bar was added to each vial, and the solubility sample vial was shaken at 1100 rpm at 25° C. for 24 h. After shaking, the stir bar was removed, and the sample was transferred to a filter plate and filtered using a vacuum manifold. […]
The resulting samples were determined by LC/MS/MS. The sample solubility was calculated from peak areas of the solution of the compound to be tested and the standard concentration solution, according to the following equation: […]

[2] = In vivo pharmacokinetics in SD rats; conditions: male, rat, plasma
Procedure: Using SD rats as test animals, drug concentrations in plasma of the rats at different times after intravenous injection and intragastric administration of the compounds provided in the present application were determined by LC/MS/MS. In vivo pharmacokinetic behaviors of the compounds provided in the present application in rats were investigated to evaluate pharmacokinetic characteristics of the compounds.
There were three healthy 6-8-week-old male SD rats in each group.
Intravenous administration: A certain amount of drug was weighed, and then 10 vol % N,N-dimethylacetamide, 33 vol % triethylene glycol, and 57 vol % physiological saline were added to prepare 1 mg/mL colorless clear and transparent liquid;
Intragastric administration: A certain amount of drug was weighed, and then 0.5 wt % hydroxypropyl methylcellulose, 0.1 vol % tween 80, and 99.6 vol % physiological saline were added to prepare 1 mg/mL white suspension.
After fasting overnight, the SD rats were dosed intravenously or intragastrically.
The compounds provided in the present application were administered intravenously to the rats, then 0.2 mL of blood was collected from jugular veins respectively at 0.083, 0.25, 0.5, 1, 2, 4, 8, and 24 h after the administration, and placed in a test tube containing EDTA-K2. The test tube was then centrifuged at 4000 rpm at 4° C. for 5 min to separate plasma, and the plasma was stored at −75° C. Alternatively, the compounds provided in the present application were administered intragastrically to the rats, then 0.2 mL of blood was collected from jugular veins respectively at 0.25, 0.5, 1, 2, 4, 8, and 24 h after the administration, and placed in a test tube containing EDTA-K2. The test tube was then centrifuged at 3500 rpm at 4° C. for 10 min to separate plasma, and the plasma was stored at −75° C.
The content of the compounds to be tested in rat plasma after intravenous administration or intragastric administration at different concentrations was determined: 30 μL of rat plasma at each time after administration was taken, 200 μL (50 ng/mL) of solution of internal standard dexamethasone in acetonitrile was added, then the resulting mixture was vortex-mixed for 30 s, and centrifuged at 4700 rpm at 4° C. for 15 min, the supernatant of plasma samples was diluted three times with water, and 2.0 μL of diluted solution was taken for LC-MS/MS.

Sequence of CYP1A2 (P05177 whole entry): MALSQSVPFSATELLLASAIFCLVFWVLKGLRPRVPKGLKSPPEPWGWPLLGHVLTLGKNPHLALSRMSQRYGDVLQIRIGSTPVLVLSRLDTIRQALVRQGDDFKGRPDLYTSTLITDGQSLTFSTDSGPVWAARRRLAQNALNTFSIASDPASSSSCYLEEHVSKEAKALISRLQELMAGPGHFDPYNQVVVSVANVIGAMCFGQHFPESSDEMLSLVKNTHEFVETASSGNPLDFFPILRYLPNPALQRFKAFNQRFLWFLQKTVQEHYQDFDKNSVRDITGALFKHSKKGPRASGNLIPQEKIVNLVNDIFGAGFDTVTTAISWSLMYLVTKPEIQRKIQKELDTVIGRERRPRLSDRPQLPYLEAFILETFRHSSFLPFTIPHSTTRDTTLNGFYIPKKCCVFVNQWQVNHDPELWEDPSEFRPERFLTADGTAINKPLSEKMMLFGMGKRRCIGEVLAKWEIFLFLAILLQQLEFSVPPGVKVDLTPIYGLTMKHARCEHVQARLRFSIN

COc1ncnc(C2CC2)c1-c1ncc2c(n1)N(Cc1ccc(-c3nc(C(F)(F)F)cn3C)cc1)CC(=O)N2C [Compound 11, 2-(4-cyclopropyl-6-methoxypyrimidin-5-yl)-5-methyl-8-(4-(1-methyl-4-(trifluoromethyl)-1H-imidazol-2-yl)benzyl)-7,8-dihydropteridin-6(5H)-one]
IC50 (CYP1A2): > 30 µM | IC50 (CYP2C9): 28.9 µM | solubility at 24 h ([1]; read-out: Calculated solubility): 181 µM | solubility at 24 h ([1]; read-out: Solubility): 99.7 µg/mL | Vd ([2]; IV 1 mg/kg, read-out: Apparent volume of distribution Vss_obs): 3.2 L/kg | clearance ([2]; IV 1 mg/kg, read-out: Clearance CL_obs): 16.5 mL/min/kg | half-life ([2]; IV 1 mg/kg, read-out: Half-life period T1/2 (converted)): 3.2 h | bioavailability ([2]; PO 5 mg/kg versus IV, read-out: Bioavailability F): 96.3% | Cmax ([2]; PO 5 mg/kg, read-out: Maximum plasma concentration Cmax): 1010 ng/mL

Source: patent US20240226107A1, “UBIQUITIN-SPECIFIC PROTEASE 1 (USP1) INHIBITOR” (SIMCERE ZAIMING PHARMACEUTICAL CO., LTD., priority 2021, published 2024)
